Common to all, as to format: cell-based
In assay [1] the test system is primary human fibroblasts derived from IPF patients (LL29 cells). Put plainly: Inhibition of fibrotic process, αSMA staining in TGF-β1 treated LL29 fibroblasts. To be noted: Fibroblast, 96 h, TGF-β1 20 ng/mL, 4 days; for EC50: % αSMA positive cells; for inhibition at 10 µM: given for EC50 >10 μM, read-out: percent inhibition at 10 μM. The gist of the method: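 IPF-patient LL29 lung fibroblasts in 1% FBS medium received compound (11-point, 1:2 dilution, 0.1% DMSO) plus TGF-β1 20 ng/mL, 4 days at 37 °C. Percent αSMA-positive cells among SYTOX-negative cells quantified by immunofluorescence imaging, normalized to TGF-β1/DMSO wells. EC50 by non-linear regression on triplicates; above 10 μM, % inhibition at 10 μM given.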

Another assay has as its system SW480 colon cancer cells. Put plainly: Cell viability assay (CellTiter-Blue). The following applies: Homo sapiens, 96 h, four days; for inhibition at 10 µM: given for EC50 >10 μM, read-out: percent inhibition at 10 μM. The gist of the method:
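Four-day viability readout in SW480 cells: compound at 0.0045–10 μM (1:3 series), DMSO controls in eight replicates, CellTiter-Blue fluorescence after ~3 h. Values are regression-derived EC50s, or percent inhibition at 10 μM when EC50 exceeds 10 μM.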
A general note: Alamar Blue is a resazurin reagent that responds to reducing activity.

Assay [2] deals with IL-6 (THP-1 human monocyte cell line). Put plainly: IL-6 inhibition in LPS-stimulated THP-1 cells (HTRF). The following applies: LPS 500 ng/mL; for EC50: 22 hours, IL6 HTRF; for inhibition at 10 µM: given for EC50 >10 μM, read-out: percent inhibition at 10 μM. In a few lines:
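THP-1 cells, serum-reduced to 1% FBS for 24 h, preincubated 2 h at 37° C with compound (10-point, 1:3 series, 0.1% DMSO), then stimulated with 500 ng/mL LPS for 22 h. IL-6 quantified by HTRF 665/620 nm ratio, normalized to DMSO; EC50 by four-parameter fit, else percent inhibition at 10 μM.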

Some results are limits rather than exact numbers.

As for `c1ccc(CNCc2cncc(-c3cnc4[nH]nc(-c5cc6c(-c7ccncc7)ccnc6[nH]5)c4c3)c2)cc1` [Compound 136, N-Benzyl-1-(5-(3-(4-(pyridin-4-yl)-1H-pyrrolo[2,3-b]pyridin-2-yl)-1H-pyrazolo[3,4-b]pyridin-5-yl)pyridin-3-yl)methanamine], the concentration for a half-maximal effect (EC50) in assay [1] is 3.04 µM; in the assay with SW480 colon cancer cells, > 10 µM; in assay [2], > 10 µM. Besides, the inhibition at 10 µM with SW480 colon cancer cells stood at 14.9%; in assay [2], 23.5%.

`c1ccc(-c2cnc3[nH]nc(-c4cc5c(-c6ccncc6)ccnc5[nH]4)c3c2)nc1` [Compound 140, 5-(Pyridin-2-yl)-3-(4-(pyridin-4-yl)-1H-pyrrolo[2,3-b]pyridin-2-yl)-1H-pyrazolo[3,4-b]pyridine]: the 50% effective concentration (EC50) (in assay [1]; with SW480 colon cancer cells; in assay [2]) was > 10 µM in each case. Besides, the inhibition at 10 µM amounted to 24.5% in assay [1], 20.2% in the assay on SW480 colon cancer cells and 24.5% in assay [2].

In the case of `CCC(=O)Nc1cncc(-c2cnc3[nH]nc(-c4cc5c(N6CCCCC6)ccnc5[nH]4)c3c2)c1` [Compound 169, N-(5-(3-(4-(Piperidin-1-yl)-1H-pyrrolo[2,3-b]pyridin-2-yl)-1H-pyrazolo[3,4-b]pyridin-5-yl)pyridin-3-yl)propionamide], the 50% effective concentration (EC50) is 2.98 µM in assay [1], > 10 µM with SW480 colon cancer cells and 4.81 µM in assay [2]. In addition, the inhibition at 10 µM with SW480 colon cancer cells was 36.1%.

On to `CC(C)(C)C(=O)Nc1cncc(-c2cnc3[nH]nc(-c4cc5c(N6CCCCC6)ccnc5[nH]4)c3c2)c1` [Compound 176, N-(5-(3-(4-(Piperidin-1-yl)-1H-pyrrolo[2,3-b]pyridin-2-yl)-1H-pyrazolo[3,4-b]pyridin-5-yl)pyridin-3-yl)pivalamide], for which the concentration for a half-maximal effect (EC50) in assay [1] is > 10 µM; in the assay on SW480 colon cancer cells, > 10 µM; in assay [2], 1.2 µM. The results for the inhibition at 10 µM (in assay [1]; in the assay with SW480 colon cancer cells) were 22.4% and 2.9%, respectively.

As to `CN(C)Cc1cncc(-c2cnc3[nH]nc(-c4cc5c(N6CCCCC6)ccnc5[nH]4)c3c2)c1` [Compound 181, N,N-Dimethyl-1-(5-(3-(4-(piperidin-1-yl)-1H-pyrrolo[2,3-b]pyridin-2-yl)-1H-pyrazolo[3,4-b]pyridin-5-yl)pyridin-3-yl)methanamine], the 50% effective concentration (EC50) in assay [1] is 0.007 µM; with SW480 colon cancer cells it was > 10 µM; in assay [2], 0.007 µM. Also, the inhibition at 10 µM in the assay on SW480 colon cancer cells was determined as 40.9%.

Regarding `c1cc(N2CCCCC2)c2cc(-c3n[nH]c4ncc(-c5cncc(CN6CCCC6)c5)cc34)[nH]c2n1` [Compound 182, 3-(4-(Piperidin-1-yl)-1H-pyrrolo[2,3-b]pyridin-2-yl)-5-(5-(pyrrolidin-1-ylmethyl)pyridin-3-yl)-1H-pyrazolo[3,4-b]pyridine], the EC50 is > 10 µM in assay [1], > 10 µM in the assay with SW480 colon cancer cells and 0.463 µM in assay [2]. Moreover, the inhibition at 10 µM in assay [1] worked out at 21.9%; with SW480 colon cancer cells, 26%.

As to `CCCC(=O)Nc1cncc(-c2cnc3[nH]nc(-c4cc5c(N6CCCCC6)ccnc5[nH]4)c3c2)c1` [Compound 185, N-(5-(3-(4-(Piperidin-1-yl)-1H-pyrrolo[2,3-b]pyridin-2-yl)-1H-pyrazolo[3,4-b]pyridin-5-yl)pyridin-3-yl)butyramide], the EC50 (in assay [1]; in the assay with SW480 colon cancer cells; in assay [2]) was > 10 µM throughout. Moreover, the inhibition at 10 µM in assay [1] amounted to 0%; in the assay on SW480 colon cancer cells, 4.9%; in assay [2], 41.2%.

As to `c1ncc(-c2cnc3[nH]nc(-c4cc5c(N6CCCCC6)ccnc5[nH]4)c3c2)cn1` [Compound 195, 3-(4-(Piperidin-1-yl)-1H-pyrrolo[2,3-b]pyridin-2-yl)-5-(pyrimidin-5-yl)-1H-pyrazolo[3,4-b]pyridine], the results for the EC50 (in assay [1]; in the assay with SW480 colon cancer cells; in assay [2]) were 4.38 µM, > 10 µM and > 10 µM, respectively. In addition, the inhibition at 10 µM in the assay with SW480 colon cancer cells amounted to 13.9%; in assay [2], 49.8%.

`CN1CCN(c2ccnc3[nH]c(-c4n[nH]c5ncc(-c6cncc(NC(=O)C7CCCCC7)c6)cc45)cc23)CC1` [Compound 247, N-(5-(3-(4-(4-Methylpiperazin-1-yl)-1H-pyrrolo[2,3-b]pyridin-2-yl)-1H-pyrazolo[3,4-b]pyridin-5-yl)pyridin-3-yl)cyclohexanecarboxamide]: the EC50 in assay [1] was 5.03 µM; in the assay with SW480 colon cancer cells it was > 10 µM; in assay [2] it was 0.496 µM. Further, the inhibition at 10 µM in the assay on SW480 colon cancer cells amounted to 11.7%.

As for `c1cncc(-c2cnc3[nH]nc(-c4cc5cccnc5[nH]4)c3c2)c1` [Compound 256, 5-(Pyridin-3-yl)-3-(1H-pyrrolo[2,3-b]pyridin-2-yl)-1H-pyrazolo[3,4-b]pyridine], the 50% effective concentration (EC50) in assay [1] is 0.529 µM; in the assay on SW480 colon cancer cells, > 10 µM; in assay [2], 0.121 µM. Further, the inhibition at 10 µM in the assay with SW480 colon cancer cells is 5.8%.

Take `O=C(Nc1cncc(-c2cnc3[nH]nc(-c4cc5cccnc5[nH]4)c3c2)c1)c1ccccc1` [Compound 263, N-(5-(3-(1H-Pyrrolo[2,3-b]pyridin-2-yl)-1H-pyrazolo[3,4-b]pyridin-5-yl)pyridin-3-yl)benzamide]: the figures for the EC50 (in assay [1]; in the assay on SW480 colon cancer cells; in assay [2]) were 0.363 µM, > 10 µM and 0.31 µM, respectively. In the assay on SW480 colon cancer cells, the inhibition at 10 µM was 21.1%.

As to `CC(C)(C)CC(=O)Nc1cncc(-c2cnc3[nH]nc(-c4cc5cccnc5[nH]4)c3c2)c1` [Compound 268, N-(5-(3-(1H-Pyrrolo[2,3-b]pyridin-2-yl)-1H-pyrazolo[3,4-b]pyridin-5-yl)pyridin-3-yl)-3,3-dimethylbutanamide], the concentration for a half-maximal effect (EC50) came out at 0.42 µM in assay [1], 1.99 µM with SW480 colon cancer cells and 0.359 µM in assay [2].

In the case of `c1cnc2[nH]c(-c3n[nH]c4ncc(-c5ccncc5)cc34)cc2c1` [Compound 270, 5-(Pyridin-4-yl)-3-(1H-pyrrolo[2,3-b]pyridin-2-yl)-1H-pyrazolo[3,4-b]pyridine], the concentration giving a half-maximal response (EC50) in assay [1] was > 10 µM; in the assay with SW480 colon cancer cells, > 10 µM; in assay [2], 4.65 µM. The figures for the inhibition at 10 µM (in assay [1]; in the assay on SW480 colon cancer cells) were 55.6% and 23.9%, respectively.

On to `CCCCC(=O)Nc1cncc(-c2cnc3[nH]nc(-c4cc5cccnc5[nH]4)c3c2)c1` [Compound 271, N-(5-(3-(1H-Pyrrolo[2,3-b]pyridin-2-yl)-1H-pyrazolo[3,4-b]pyridin-5-yl)pyridin-3-yl)pentanamide], for which the figures for the EC50 (in assay [1]; in the assay with SW480 colon cancer cells; in assay [2]) were 5.35 µM, > 10 µM and 0.041 µM, respectively. Moreover, the inhibition at 10 µM in the assay on SW480 colon cancer cells worked out at 11.4%.

As to `O=C(Nc1cncc(-c2cnc3[nH]nc(-c4cc5cccnc5[nH]4)c3c2)c1)C1CCCC1` [Compound 274, N-(5-(3-(1H-Pyrrolo[2,3-b]pyridin-2-yl)-1H-pyrazolo[3,4-b]pyridin-5-yl)pyridin-3-yl)cyclopentanecarboxamide], the EC50 is 0.76 µM in assay [1], > 10 µM in the assay on SW480 colon cancer cells and 0.415 µM in assay [2]. Moreover, the inhibition at 10 µM in the assay with SW480 colon cancer cells stood at 54.2%.

Turning to `O=C(Nc1cncc(-c2cnc3[nH]nc(-c4cc5cccnc5[nH]4)c3c2)c1)C1CCCCC1` [Compound 275, N-(5-(3-(1H-Pyrrolo[2,3-b]pyridin-2-yl)-1H-pyrazolo[3,4-b]pyridin-5-yl)pyridin-3-yl)cyclohexanecarboxamide], the EC50 in assay [1] stood at 1.56 µM; with SW480 colon cancer cells, 2.43 µM; in assay [2], 0.063 µM.

Regarding `CC(C)(C)CC(=O)Nc1cncc(-c2cnc3[nH]nc(-c4cc5c(-c6ccoc6)ccnc5[nH]4)c3c2)c1` [Compound 324, N-(5-(3-(4-(Furan-3-yl)-1H-pyrrolo[2,3-b]pyridin-2-yl)-1H-pyrazolo[3,4-b]pyridin-5-yl)pyridin-3-yl)-3,3-dimethylbutanamide], the 50% effective concentration (EC50) (in assay [1]; in the assay with SW480 colon cancer cells; in assay [2]) was > 10 µM in each case. In addition, the inhibition at 10 µM was 0% in assay [1], 5.3% in the assay with SW480 colon cancer cells and 28.6% in assay [2].

Take `CN(C)c1cncc(-c2cnc3[nH]nc(-c4cc5c(-c6cccs6)ccnc5[nH]4)c3c2)c1` [Compound 343, N,N-Dimethyl-5-(3-(4-(thiophen-2-yl)-1H-pyrrolo[2,3-b]pyridin-2-yl)-1H-pyrazolo[3,4-b]pyridin-5-yl)pyridin-3-amine]: the figures for the EC50 (in assay [1]; in the assay on SW480 colon cancer cells; in assay [2]) were 1.75 µM, > 10 µM and 0.032 µM, respectively. In addition, the inhibition at 10 µM with SW480 colon cancer cells was found to be 36.8%.

Regarding `O=C(Nc1cncc(-c2cnc3[nH]nc(-c4cc5c(-c6cccs6)ccnc5[nH]4)c3c2)c1)C1CC1` [Compound 356, N-(5-(3-(4-(Thiophen-2-yl)-1H-pyrrolo[2,3-b]pyridin-2-yl)-1H-pyrazolo[3,4-b]pyridin-5-yl)pyridin-3-yl)cyclopropanecarboxamide], the concentration giving a half-maximal response (EC50) in assay [1] is > 10 µM; in the assay with SW480 colon cancer cells, > 10 µM; in assay [2] it was 0.28 µM. Further, the inhibition at 10 µM in assay [1] was found to be 0%; in the assay with SW480 colon cancer cells it was 14.5%.

The term EC50 denotes the concentration at which the effect is half-maximal. One may read the inhibition as the drop in the measured response relative to a control, in per cent.

(Values after patent US10285983B2, “3-(1H-pyrrolo[2,3-B]pyridin-2-yl)-1H-pyrazolo[3,4-B] pyridines and therapeutic uses thereof” (Samumed, LLC, priority 2015, dated 2019).)
